Biological target: T1, SST5 (Homo sapiens, UniProt P35346)
T1 construct: purchased Perkin Elmer BioSignal; host or cells: HEK 293
Assay: GPCR radioligand binding (RLB) assay, somatostatin SST5, [125I]SST-14
Conditions: for SST5 inhibition at 10 micromolar: recombinant human receptor membranes (HEK 293)
Description: Recombinant human receptors expressed in HEK 293 cells were used for all experiments. Receptor membrane preparations were purchased from Perkin Elmer BioSignal. The labelled ligand used in somatostatin GPCR RLB assays was [^125I]SST-14 and in melanocortin assays was [^125I]NDP-αMSH. All assays were done in a 96-well plate format using either glass fiber filter mats or filter plates. All reagents purchased were of the highest quality.
Specific assay buffer, incubation and washing conditions were optimized for each receptor however they all followed the same general format. The procedures for both filter mat and filter plate formats are based on the receptor manufacturers recommendations or those described extensively in the literature. The procedures are briefly outlined below.
In assays where filter mats are used we incubate receptor membranes, assay buffer and [^125I] labelled ligand in 96 well microplates. Add compounds to incubation mixture and continue incubation for optimized period. Presoak Filter mat GF/B in 0.5% PEI for ˜2 hr at 4° C. On completion of assay mixture incubation add additional 100 μL/well of assay buffer immediately prior to filtration. Filter the assay mixture onto the GF/B filter mat using a cell harvester. Dry the filter mats prior to sealing them into a scintillation counting bag with scintillant. Radioactivity in each well is detected by liquid scintillation counting.
In assays where filter plates are used Multiscreen glass fiber filter plates (Millipore, Cat No MAFCNOB10) are precoated with 0.5% PEI for ˜2 hr at 4° C. All wells are then washed with 200 µl/well assay buffer and filtered using the Multiscreen Separation System. Subsequently receptor membranes, assay buffer and labelled ligands are added to the wells and equilibrated. Compounds for testing are then added to the mixture and incubation is continued for an optimized time. Plates are then put into the Multiscreen Separation System and the assay mixture is filtered through the plate under vacuum. Each well is then washed several times with assay buffer. Plates are then dried prior to putting sealing tape onto the bottom of the plate. Scintillant is added to each well and radioactivity measured by liquid scintillation counting.
Raw data was analysed according to standard methods using either GraphPad Prism software or IDDBS ActivityBase software.

[1] = 10 micromolar, Example Library 4

T1 sequence (P35346 whole entry): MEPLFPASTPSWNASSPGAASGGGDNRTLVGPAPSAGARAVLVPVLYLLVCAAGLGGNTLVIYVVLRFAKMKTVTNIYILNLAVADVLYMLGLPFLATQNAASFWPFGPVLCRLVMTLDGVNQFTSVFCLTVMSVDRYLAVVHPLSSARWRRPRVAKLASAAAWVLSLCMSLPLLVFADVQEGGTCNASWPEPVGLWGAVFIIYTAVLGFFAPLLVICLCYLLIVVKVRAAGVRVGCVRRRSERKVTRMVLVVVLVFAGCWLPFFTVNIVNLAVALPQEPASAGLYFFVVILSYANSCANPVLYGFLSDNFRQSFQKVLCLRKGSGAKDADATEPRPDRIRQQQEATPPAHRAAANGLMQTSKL

COC[C@H]1OC(OCc2ccc(Cl)cc2)[C@H](NC(=O)CCCN)[C@@H](OCc2ccc(Cl)cc2)[C@@H]1O (stereo partly drawn) [Compound 55]
SST5 inhibition at 10 micromolar (10 micromolar compound): + (Indicates inhibition greater than . . . 50%)

CO[C@H]1[C@H](O)[C@@H](COCc2ccc3ccccc3c2)OC(OCc2ccc(-c3ccccc3)cc2)[C@@H]1NC(=O)CCNC(=N)N (stereo partly drawn) [Compound 60]
SST5 inhibition at 10 micromolar (10 micromolar compound): + (Indicates inhibition greater than . . . 50%)

CO[C@H]1[C@H](O)[C@@H](COCc2ccccc2)OC(OCc2ccc(Cl)cc2)[C@@H]1NC(=O)CCCN (stereo partly drawn) [Compound 91]
SST5 inhibition at 10 micromolar (10 micromolar compound): + (Indicates inhibition greater than . . . 50%)

CO[C@H]1[C@H](O)[C@@H](COCc2cccc(O)c2)OC(OCc2ccc3ccccc3c2)[C@@H]1NC(=O)CCCN (stereo partly drawn) [Compound 109]
SST5 inhibition at 10 micromolar (10 micromolar compound): + (Indicates inhibition greater than . . . 50%)

CO[C@H]1[C@H](O)[C@@H](COCc2cccc(O)c2)OC(OCc2ccc(Cl)cc2)[C@@H]1NC(=O)CCCN (stereo partly drawn) [Compound 111]
SST5 inhibition at 10 micromolar (10 micromolar compound): + (Indicates inhibition greater than . . . 50%)

CO[C@H]1[C@H](O)[C@@H](COCc2ccc(Cl)cc2)OC(OCc2cccc(O)c2)[C@@H]1NC(=O)CCCN (stereo partly drawn) [Compound 118]
SST5 inhibition at 10 micromolar (10 micromolar compound): + (Indicates inhibition greater than . . . 50%)

CSC1OC(COCc2ccccc2)C(O)C(OCc2ccccc2)C1NC(=O)CN (stereo not drawn) [Compound 119]
SST5 inhibition at 10 micromolar (10 micromolar compound): + (Indicates inhibition greater than . . . 50%)

CSC1OC(COCc2ccccc2)C(O)C(OCc2ccccc2)C1NC(=O)CCCN (stereo not drawn) [Compound 123]
SST5 inhibition at 10 micromolar (10 micromolar compound): + (Indicates inhibition greater than . . . 50%)

CSC1OC(COCc2ccc(Cl)cc2)C(O)C(OCc2ccccc2)C1NC(=O)CN (stereo not drawn) [Compound 125]
SST5 inhibition at 10 micromolar (10 micromolar compound): + (Indicates inhibition greater than . . . 50%)

CSC1OC(COCc2ccc(Cl)cc2)C(O)C(OCc2ccccc2)C1NC(=O)CCN (stereo not drawn) [Compound 127]
SST5 inhibition at 10 micromolar (10 micromolar compound): + (Indicates inhibition greater than . . . 50%)

CSC1OC(COCc2ccc(-c3ccccc3)cc2)C(O)C(OCc2ccccc2)C1NC(=O)CN (stereo not drawn) [Compound 131]
SST5 inhibition at 10 micromolar (10 micromolar compound): + (Indicates inhibition greater than . . . 50%)

CSC1OC(COCc2ccccc2)C(O)C(OCc2ccc(Cl)cc2)C1NC(=O)CN (stereo not drawn) [Compound 143]
SST5 inhibition at 10 micromolar (10 micromolar compound): + (Indicates inhibition greater than . . . 50%)

CSC1OC(COCc2ccccc2)C(O)C(OCc2ccc(Cl)cc2)C1NC(=O)CCCN (stereo not drawn) [Compound 147]
SST5 inhibition at 10 micromolar (10 micromolar compound): + (Indicates inhibition greater than . . . 50%)

CSC1OC(COCc2ccc(Cl)cc2)C(O)C(OCc2ccc(Cl)cc2)C1NC(=O)CN (stereo not drawn) [Compound 149]
SST5 inhibition at 10 micromolar (10 micromolar compound): + (Indicates inhibition greater than . . . 50%)

CSC1OC(COCc2ccc(Cl)cc2)C(O)C(OCc2ccc(Cl)cc2)C1NC(=O)CCCN (stereo not drawn) [Compound 153]
SST5 inhibition at 10 micromolar (10 micromolar compound): + (Indicates inhibition greater than . . . 50%)

CSC1OC(COCc2ccc(-c3ccccc3)cc2)C(O)C(OCc2ccc(-c3ccccc3)cc2)C1NC(=O)CCCNC(=N)N (stereo not drawn) [Compound 184]
SST5 inhibition at 10 micromolar (10 micromolar compound): + (Indicates inhibition greater than . . . 50%)

CSC1OC(COCc2ccccc2)C(O)C(OCc2ccc3ccccc3c2)C1NC(=O)CCN (stereo not drawn) [Compound 193]
SST5 inhibition at 10 micromolar (10 micromolar compound): + (Indicates inhibition greater than . . . 50%)

COCC1OC(OCc2ccccc2)C(NC(=O)CN)C(OCc2ccccc2)C1O (stereo not drawn) [Compound 213]
SSTS inhibition at 10 micromolar [1]: + (Indicates inhibition greater than . . . 50%)

COCC1OC(OCc2ccccc2)C(NC(=O)CCN)C(OCc2ccccc2)C1O (stereo not drawn) [Compound 215]
SSTS inhibition at 10 micromolar [1]: + (Indicates inhibition greater than . . . 50%)

COCC1OC(OCc2ccccc2)C(NC(=O)CCCN)C(OCc2ccccc2)C1O (stereo not drawn) [Compound 217]
SSTS inhibition at 10 micromolar [1]: + (Indicates inhibition greater than . . . 50%)

COCC1OC(OCc2ccccc2)C(NC(=O)CN)C(OCc2ccc3ccccc3c2)C1O (stereo not drawn) [Compound 231]
SSTS inhibition at 10 micromolar [1]: + (Indicates inhibition greater than . . . 50%)

COCC1OC(OCc2ccc(Cl)cc2)C(NC(=O)CCN)C(OCc2ccccc2)C1O (stereo not drawn) [Compound 238]
SSTS inhibition at 10 micromolar [1]: + (Indicates inhibition greater than . . . 50%)

COCC1OC(OCc2ccc(Cl)cc2)C(NC(=O)CCCN)C(OCc2ccccc2)C1O (stereo not drawn) [Compound 240]
SSTS inhibition at 10 micromolar [1]: + (Indicates inhibition greater than . . . 50%)

COCC1OC(OCCc2ccccc2)C(NC(=O)CN)C(OCc2ccccc2)C1O (stereo not drawn) [Compound 260]
SSTS inhibition at 10 micromolar [1]: + (Indicates inhibition greater than . . . 50%)

COCC1OC(OCCc2ccccc2)C(NC(=O)CCN)C(OCc2ccccc2)C1O (stereo not drawn) [Compound 262]
SSTS inhibition at 10 micromolar [1]: + (Indicates inhibition greater than . . . 50%)

COCC1OC(OCCc2ccccc2)C(NC(=O)CCCN)C(OCc2ccccc2)C1O (stereo not drawn) [Compound 264]
SSTS inhibition at 10 micromolar [1]: + (Indicates inhibition greater than . . . 50%)

COCC1OC(OCCc2ccccc2)C(NC(=O)CN)C(OCc2ccc(Cl)cc2)C1O (stereo not drawn) [Compound 266]
SSTS inhibition at 10 micromolar [1]: + (Indicates inhibition greater than . . . 50%)

COCC1OC(OCc2ccc3ccccc3c2)C(NC(=O)CN)C(OCc2ccccc2)C1O (stereo not drawn) [Compound 284]
SSTS inhibition at 10 micromolar [1]: + (Indicates inhibition greater than . . . 50%)

COCC1OC(OCc2ccc3ccccc3c2)C(NC(=O)CCCN)C(OCc2ccccc2)C1O (stereo not drawn) [Compound 288]
SSTS inhibition at 10 micromolar [1]: + (Indicates inhibition greater than . . . 50%)

COCC1OC(OCc2ccc3ccccc3c2)C(NC(=O)CCCNC(=N)N)C(OCc2ccccc2)C1O (stereo not drawn) [Compound 289]
SSTS inhibition at 10 micromolar [1]: + (Indicates inhibition greater than . . . 50%)

COCC1OC(OCc2ccc3ccccc3c2)C(NC(=O)CN)C(OCc2ccc(Cl)cc2)C1O (stereo not drawn) [Compound 290]
SSTS inhibition at 10 micromolar [1]: + (Indicates inhibition greater than . . . 50%)

COCC1OC(OCc2ccc3ccccc3c2)C(NC(=O)CCN)C(OCc2ccc(Cl)cc2)C1O (stereo not drawn) [Compound 292]
SSTS inhibition at 10 micromolar [1]: + (Indicates inhibition greater than . . . 50%)

COCC1OC(OCc2ccc3ccccc3c2)C(NC(=O)CN)C(OCc2ccc(-c3ccccc3)cc2)C1O (stereo not drawn) [Compound 296]
SSTS inhibition at 10 micromolar [1]: + (Indicates inhibition greater than . . . 50%)

COCC1OC(OCc2ccc3ccccc3c2)C(NC(=O)CCN)C(OCc2ccc3ccccc3c2)C1O (stereo not drawn) [Compound 304]
SSTS inhibition at 10 micromolar [1]: + (Indicates inhibition greater than . . . 50%)

COCC1OC(OCc2ccc3ccccc3c2)C(NC(=O)CCCN)C(OCc2ccc3ccccc3c2)C1O (stereo not drawn) [Compound 306]
SSTS inhibition at 10 micromolar [1]: + (Indicates inhibition greater than . . . 50%)

CSC1OC(COC(=O)Cc2c[nH]c3ccccc23)C(O)C(OCc2cccc(N)c2)C1NCc1ccccc1 (stereo not drawn) [Compound 310]
SST5 inhibition at 10 micromolar (10 micromolar compound): + (Indicates inhibition greater than . . . 50%)

CSC1OC(COC(=O)c2ccccc2)C(O)C(OCc2cccc(N)c2)C1NCc1ccc(Cl)cc1 (stereo not drawn) [Compound 312]
SST5 inhibition at 10 micromolar (10 micromolar compound): + (Indicates inhibition greater than . . . 50%)

CSC1OC(COC(=O)Cc2c[nH]c3ccccc23)C(O)C(OCc2cccc(N)c2)C1NCc1ccc(Cl)cc1 (stereo not drawn) [Compound 315]
SST5 inhibition at 10 micromolar (10 micromolar compound): + (Indicates inhibition greater than . . . 50%)

CSC1O[C@H](COCc2ccccc2)[C@@H](O)[C@H](OCc2cccc(N)c2)[C@H]1NC(=O)c1ccccc1 (stereo partly drawn) [Compound 316]
SST5 inhibition at 10 micromolar (10 micromolar compound): + (Indicates inhibition greater than . . . 50%)

CSC1O[C@H](COCc2ccccc2)[C@@H](O)[C@H](OCc2cccc(N)c2)[C@H]1NC(=O)Cc1c[nH]c2ccccc12 (stereo partly drawn) [Compound 319]
SST5 inhibition at 10 micromolar (10 micromolar compound): + (Indicates inhibition greater than . . . 50%)

CSC1O[C@H](COCc2ccc(Cl)cc2)[C@@H](O)[C@H](OCc2cccc(N)c2)[C@H]1NC(=O)c1ccccc1 (stereo partly drawn) [Compound 321]
SST5 inhibition at 10 micromolar (10 micromolar compound): + (Indicates inhibition greater than . . . 50%)

CSC1O[C@H](COCc2ccc(Cl)cc2)[C@@H](O)[C@H](OCc2cccc(N)c2)[C@H]1NC(=O)Cc1ccccc1 (stereo partly drawn) [Compound 322]
SST5 inhibition at 10 micromolar (10 micromolar compound): + (Indicates inhibition greater than . . . 50%)

CSC1OC(COCc2cccc(N)c2)C(O)C(OCc2ccccc2)C1NC(=O)c1ccccc1 (stereo not drawn) [Compound 326]
SST5 inhibition at 10 micromolar (10 micromolar compound): + (Indicates inhibition greater than . . . 50%)

CSC1OC(COCc2cccc(N)c2)C(O)C(OCc2ccccc2)C1NC(=O)Cc1c[nH]c2ccccc12 (stereo not drawn) [Compound 329]
SST5 inhibition at 10 micromolar (10 micromolar compound): + (Indicates inhibition greater than . . . 50%)

CSC1O[C@H](COCc2cccc(N)c2)[C@@H](O)[C@H](OCc2ccccc2)[C@H]1NC(=O)CCC1CNc2ccccc21 (stereo partly drawn) [Compound 337]
SSTS inhibition at 10 micromolar (10 micromolar compound, Example Library 8): + (Indicates inhibition greater than . . . 50%)

— patent US7994140B2, “Classes of compounds that interact with GPCRs” (Alchemia Limited, priority 2002, dated 2011)
